{
  "source": "patent US20250092093A1",
  "about": "“Androgen receptor protein degradation-inducing peptides for prostate cancer treatment” (priority 2023, published 2025)",
  "key": {"AR protein [1]": {"target": "T1, AR protein (Homo sapiens, UniProt P10275)", "T1 sequence (P10275 1-920)": "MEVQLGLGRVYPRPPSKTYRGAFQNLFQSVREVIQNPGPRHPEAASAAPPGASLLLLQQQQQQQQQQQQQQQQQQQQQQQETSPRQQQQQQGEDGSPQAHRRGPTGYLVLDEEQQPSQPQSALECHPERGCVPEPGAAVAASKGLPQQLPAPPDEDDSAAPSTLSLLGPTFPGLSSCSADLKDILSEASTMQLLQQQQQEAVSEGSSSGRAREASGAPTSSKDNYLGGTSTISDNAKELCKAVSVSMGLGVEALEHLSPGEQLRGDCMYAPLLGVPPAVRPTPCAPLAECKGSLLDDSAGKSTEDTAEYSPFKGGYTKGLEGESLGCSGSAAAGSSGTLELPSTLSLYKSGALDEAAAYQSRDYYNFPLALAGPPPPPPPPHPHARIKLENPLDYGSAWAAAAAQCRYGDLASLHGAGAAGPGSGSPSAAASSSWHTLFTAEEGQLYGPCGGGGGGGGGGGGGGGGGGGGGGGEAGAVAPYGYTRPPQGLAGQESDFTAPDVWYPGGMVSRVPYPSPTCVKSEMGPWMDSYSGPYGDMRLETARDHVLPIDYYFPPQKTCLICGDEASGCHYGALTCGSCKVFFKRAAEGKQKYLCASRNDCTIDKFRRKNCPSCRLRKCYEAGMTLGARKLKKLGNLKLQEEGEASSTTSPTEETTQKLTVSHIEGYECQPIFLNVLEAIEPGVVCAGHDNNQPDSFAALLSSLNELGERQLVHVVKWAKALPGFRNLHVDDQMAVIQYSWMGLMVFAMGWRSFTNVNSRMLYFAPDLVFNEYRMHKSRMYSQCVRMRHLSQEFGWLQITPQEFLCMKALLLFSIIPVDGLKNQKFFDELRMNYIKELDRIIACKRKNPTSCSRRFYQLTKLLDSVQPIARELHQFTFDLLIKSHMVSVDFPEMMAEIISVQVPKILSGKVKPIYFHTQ", "settings": "reported in the literature [3]; cited from earlier work"}, "AR protein [2]": {"target": "T2, AR protein (Homo sapiens, UniProt P10275, T878A)", "T2 construct": "C4-2B cells were treated with peptides (10 micro-M) for 24 h as indicated, and AR protein levels were assessed by western blots; endogenous in cells; host or cells: C4-2B", "T2 sequence (P10275 1-920 T878A)": "T1 sequence (P10275 1-920) with T878A", "assay": "AR protein level by western blot in C4-2B cells", "type": "cell-based", "settings": "10 micro-M", "protocol": "(§1) A. C4-2B cells were treated with peptides (10 micro-M) for 24 h as indicated, and AR protein levels were assessed by western blots. B. C4-2B cells were treated with peptides and harvested for western blot assay with an anti-PARP antibody. Actin blot served as a protein loading control. C. Flow cytometry analysis of subG1/GO cell cycle population in C4-2B cells after peptide treatment (10 micro-M) in 2% charcoal-stripped FBS for 24 h. Data represents two experiments. The asterisk indicates a significant difference compared to the DSMO control (p<0.05, Student t-test).\nA. Peptide analogs were synthesized as listed in the top panel. The myristylation sequence was conjugated to the N-terminal of the peptide for penetrating the plasma membrane. B. Prostate cancer C4-2B cells were treated with the agents at a concentration of 10 micro-M for 48 h. Cells were harvested for western blot assay with AR antibody (clone PG21). The Actin blot served as a protein loading control. […]\nWe further characterized the ARi14 peptide for its core sequence of action. The ARi14 peptide was chopped into two fragments, the 7-mer ARi7 peptide (EAAAYQS) and 8-mer ARi8 peptide ([…]), and their AR degradation inducing ability was compared to the original 14-mer peptide (FIG. 3). These peptides were synthesized with an N-terminal myristylation signal to facilitate cellular uptake. […]"}, "C4-2B cells [3]": {"tested_on": "C4-2B cells", "assay": "Flow cytometry analysis of subG1/GO cell cycle population in C4-2B cells", "type": "cell-based", "settings": "Enzalutamide-resistant C4-2B cells, 10 micro-M, 24 h, 2% charcoal-stripped FBS", "protocol": "as §1\n(§2) We further characterized the ARi14 peptide for its core sequence of action. The ARi14 peptide was chopped into two fragments, the 7-mer ARi7 peptide (EAAAYQS) and 8-mer ARi8 peptide ([…]), and their AR degradation inducing ability was compared to the original 14-mer peptide (FIG. 3). These peptides were synthesized with an N-terminal myristylation signal to facilitate cellular uptake."}, "AR protein [4]": {"target": "T1, AR protein", "assay": "AR protein level by western blot in LAPC-4 cells", "type": "cell-based", "settings": "10 micro-M, 24 h, 2% charcoal-stripped FBS", "protocol": "(§3) A. ARi14 peptide was fused with the KDM4A CPP sequence via a short link (KDM4A-ARi14). This fused peptide was labeled with FITC fluorescent dye. B. LAPC-4 cells were treated with the solvent, or the peptides as indicated at 10 micro-M in 2% charcoal-striped FBS-supplied media for 24 h. Cellular proteins were subjected to a western blot with an anti-AR antibody (clone PG21). Actin blot served as a protein loading control. C. Microscopic images were shown for cell viability. Note: white arrows indicate a cluster of dying cells loaded with fluorescent-labeled peptides.\n(§4) To achieve a better intracellular distribution of the peptide, a cellular penetrating peptide (CPP) derived from the KDM4A protein was fused to the N-terminal of the ARil4 peptide via a short link sequence GGGS (FIG. 2A)."}, "LAPC-4 cells": {"tested_on": "LAPC-4 cells", "assay": "Cell viability / cell death by microscopic images in LAPC-4 cells", "type": "cell-based", "settings": "10 micro-M, 24 h", "protocol": "as §3, §4"}, "C4-2B cells [5]": {"tested_on": "C4-2B cells", "assay": "Apoptotic cell death by PARP cleavage western blot in C4-2B cells", "type": "cell-based", "settings": "N-terminal myristylated peptides", "protocol": "as §1, §2"}, "[6]": {"settings": "N-terminal myristylated peptides, 24 h"}},
  "note": "Residue numbers refer to the chain shown, from its start. Ends that are not written are not given here. * marks the point of attachment. Myristoyl = CCCCCCCCCCCCCC(=O)*",
  "data": [
    {"compound": "COc1ccc(/C=C/C(=O)/C=C(O)/C=C/c2ccc(OC)c(OC)c2)cc1OC", "note": "[ASC-J9]", "values": [
      {"measurement": "AR protein degradation in prostate cancer cells", "setting": "AR protein [1]", "result": "induced AR protein degradation"}
    ]},
    {"compound": "ARi10: new analog of ARi8, myristylation sequence at the N-terminal (Myristoyl-YQSRDYYNFP)", "values": [
      {"measurement": "AR protein levels", "setting": "AR protein [2]; myristylated peptides, 48 h", "result": "largely reduced"}
    ]},
    {"compound": "EAAAYQS [ARi7, 7-mer fragment of ARi14, synthesized with an N-terminal myristylation signal]", "values": [
      {"measurement": "impact on the AR protein level", "setting": "AR protein [2]; [6]", "result": "no impact"}
    ]},
    {"compound": "EAAAYQSRDYYNFP [ARi14, decoy peptide derived from the AR N-terminal domain, amino acids 355-368; myristylated form used in b32]", "values": [
      {"measurement": "cell cycle arrest at the subG1/GO phase", "setting": "C4-2B cells [3]", "result": "induced cell cycle arrest"},
      {"measurement": "AR protein level", "setting": "AR protein [4]", "result": "no apparent effect"},
      {"measurement": "cell death response / cell viability", "setting": "LAPC-4 cells", "result": "no apparent effect"},
      {"measurement": "AR reduction", "setting": "AR protein [2]; [6]", "result": 78, "unit": "%"}
    ]},
    {"compound": "SRDYYNFP [ARi8, 8-mer fragment of ARi14, synthesized with an N-terminal myristylation signal]", "values": [
      {"measurement": "cell cycle arrest at the subG1/GO phase", "setting": "C4-2B cells [3]", "result": "induced cell cycle arrest"},
      {"measurement": "apoptotic cell death evidenced by PARP cleavage", "setting": "C4-2B cells [5]", "result": "more profound apoptotic cell death than ARi14"},
      {"measurement": "AR reduction", "setting": "AR protein [2]; [6]", "result": 92, "unit": "%"}
    ]}
  ]
}
